Laboratory results from patent publication US20250215029A1 (Recludix Pharma, Inc., priority 2022, published 2025).
pIC50: −log10 of the molar value. Like-named read-outs stand apart in the source and are kept apart here.

Legend:
pY705-STAT3 in PBMC = biological target: T1, pY705-STAT3 in PBMC (Homo sapiens, UniProt P40763); assay: MSD-pSTAT-PBMC Assay (pSTAT3, IL-6 stimulated); format: cell-based; conditions: compound 3 hrs, then 10 ng/mL IL-6 for 10 min
T1 construct: Cryopreserved Peripheral Blood Mononuclear Cells (PBMC) are from AllCells; host or cells: cryopreserved PBMC
T1 sequence (P40763 whole entry): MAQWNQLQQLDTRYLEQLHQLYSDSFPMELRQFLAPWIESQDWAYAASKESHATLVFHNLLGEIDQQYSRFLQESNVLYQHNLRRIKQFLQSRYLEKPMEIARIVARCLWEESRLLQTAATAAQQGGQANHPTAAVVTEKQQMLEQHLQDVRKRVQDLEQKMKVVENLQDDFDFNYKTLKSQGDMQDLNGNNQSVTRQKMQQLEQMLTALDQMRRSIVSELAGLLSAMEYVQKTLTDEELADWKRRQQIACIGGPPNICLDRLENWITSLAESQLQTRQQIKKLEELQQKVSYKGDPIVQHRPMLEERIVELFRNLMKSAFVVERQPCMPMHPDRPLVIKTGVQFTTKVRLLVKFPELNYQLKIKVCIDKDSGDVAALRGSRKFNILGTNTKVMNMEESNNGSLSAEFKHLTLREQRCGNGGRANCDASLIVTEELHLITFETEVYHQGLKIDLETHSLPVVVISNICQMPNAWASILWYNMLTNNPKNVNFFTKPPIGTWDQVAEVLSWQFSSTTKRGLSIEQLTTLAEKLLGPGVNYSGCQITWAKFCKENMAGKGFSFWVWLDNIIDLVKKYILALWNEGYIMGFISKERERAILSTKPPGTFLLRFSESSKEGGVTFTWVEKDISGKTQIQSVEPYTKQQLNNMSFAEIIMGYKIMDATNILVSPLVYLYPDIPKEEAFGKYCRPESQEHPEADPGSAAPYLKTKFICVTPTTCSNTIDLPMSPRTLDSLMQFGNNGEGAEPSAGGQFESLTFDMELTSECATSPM
In short: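 PBMC (human, cryopreserved, overnight recovery) + cpd 3 hrs → IL-6 10 ng/mL (STAT3) or IL-4 1 ng/mL (STAT6) ×10 min → lysis with protease/phosphatase inhibitors → MSD capture/phospho detection. IC50, variable slope, DMSO-normalized.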

pY641-STAT6 in PBMC = biological target: T2, pY641-STAT6 in PBMC (Homo sapiens, UniProt P42226); assay: MSD-pSTAT-PBMC Assay (pSTAT6, IL-4 stimulated); format: cell-based; conditions: compound 3 hrs, then 1 ng/mL IL-4 for 10 min
T2 construct: Cryopreserved Peripheral Blood Mononuclear Cells (PBMC) are from AllCells; host or cells: cryopreserved PBMC
T2 sequence (P42226 1-847): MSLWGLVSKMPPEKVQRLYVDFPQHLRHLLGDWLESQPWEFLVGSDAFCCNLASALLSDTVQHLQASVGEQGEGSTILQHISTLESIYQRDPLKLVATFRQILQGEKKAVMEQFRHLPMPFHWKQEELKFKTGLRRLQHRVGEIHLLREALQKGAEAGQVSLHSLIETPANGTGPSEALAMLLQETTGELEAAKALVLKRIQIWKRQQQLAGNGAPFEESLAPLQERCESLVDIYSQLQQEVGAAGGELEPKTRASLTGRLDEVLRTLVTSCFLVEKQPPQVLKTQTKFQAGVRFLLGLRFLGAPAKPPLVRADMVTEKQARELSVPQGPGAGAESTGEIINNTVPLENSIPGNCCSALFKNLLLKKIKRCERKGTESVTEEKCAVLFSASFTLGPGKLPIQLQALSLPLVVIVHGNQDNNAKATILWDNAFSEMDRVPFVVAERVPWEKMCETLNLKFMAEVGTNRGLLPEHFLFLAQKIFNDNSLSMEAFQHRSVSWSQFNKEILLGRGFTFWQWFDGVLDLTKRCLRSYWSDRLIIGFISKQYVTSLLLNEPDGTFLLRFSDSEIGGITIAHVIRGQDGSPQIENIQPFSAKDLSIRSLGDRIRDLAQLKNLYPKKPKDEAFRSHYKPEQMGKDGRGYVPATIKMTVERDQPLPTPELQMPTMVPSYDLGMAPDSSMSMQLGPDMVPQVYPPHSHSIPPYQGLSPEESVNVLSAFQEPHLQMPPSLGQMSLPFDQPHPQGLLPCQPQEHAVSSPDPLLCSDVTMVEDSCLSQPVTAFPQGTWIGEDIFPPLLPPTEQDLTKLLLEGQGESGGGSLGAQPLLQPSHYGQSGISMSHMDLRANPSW
In short: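 Thawed human PBMC rested overnight in IMDM/10% FBS, then got compound for 3 hrs before a 10 min cytokine pulse: 1 ng/mL IL-4 for pSTAT6, 10 ng/mL IL-6 for pSTAT3. Lysates went to MSD sandwich capture on total STAT6 or STAT3 with phospho-specific detection. IC50 came from background-subtracted, DMSO-normalized signal.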

[1] = PBMC, Table 1114, read-out: pSTAT3
[2] = PBMC, Table 1114, read-out: pSTAT6
[3] = PBMC, Table 115, read-out: STAT3
[4] = PBMC, Table 115, read-out: STAT6

In the case of CC(C)(CO)C(=O)SCCOP(=O)(Cc1ccc2sc(C(=O)NC3CCCCC4CCC(C(=O)N5CC(C#N)C(c6ccccc6)C5)N4C3=O)cc2c1)OCCSC(=O)C(C)(C)CO (single isomer, unassigned) [Compound 199, S,S′-(((((2-(((3S,6S,10aS)-3-((3S,4R or 3R,4S)-3-cyano-4-phenylpyrrolidine-1-carbonyl)-5-oxodecahydropyrrolo[1,2-a]azocin-6-yl)carbamoyl)benzo[b]thiophen-5-yl)methyl)phosphoryl)bis(oxy))bis(ethane-2,1-diyl))bis(3-hydroxy-2,2-dimethylpropanethioate)trifluoroacetate], the pIC50 (pY705-STAT3 in PBMC; [1]) was under 5.52 and the pIC50 (pY641-STAT6 in PBMC; [2]) was under 5.52.

CC(C)(CO)C(=O)SCCOP(=O)(OCCSC(=O)C(C)(C)CO)C(F)(F)c1ccc2sc(C(=O)N[C@H]3CCCC[C@H]4CC[C@@H](C(=O)N5C[C@@H](C#N)[C@H](c6ccccc6)C5)N4C3=O)cc2c1 (single isomer, unassigned) [Compound 200, S,S′-(((((2-(((3S,6S,10a S)-3-((3S,4R or 3R,4S)-3-cyano-4-phenylpyrrolidine-1-carbonyl)-5-oxodecahydro-pyrrolo [1,2-a]azocin-6-yl)carbamoyl)benzo[b]thiophen-5-yl)difluoromethyl)phosphoryl)bis(oxy))bis(ethane-2,1-diyl)) bis(3-hydroxy-2,2-dimethyl-propanethioate)] was tested, and the pIC50 (pY705-STAT3 in PBMC; [1]) was 5.52 to 6.00 and the pIC50 (pY641-STAT6 in PBMC; [2]) was under 5.52.

CC(C)(O)CC(=O)SCCOP(=O)(OCCSC(=O)CC(C)(C)O)C(F)(F)c1ccc2sc(C(=O)N[C@H]3CCCC[C@H]4CC[C@@H](C(=O)N5C[C@@H](C#N)[C@H](c6ccccc6)C5)N4C3=O)cc2c1 (single isomer, unassigned) [Compound 202, S,S′-(((((2-(((3S,6S,10a S)-3-((3S,4R or 3R,4S)-3-cyano-4-phenylpyrrolidine-1-carbonyl)-5-oxodecahydro-pyrrolo [1,2-a]azocin-6-yl)carbamoyl)benzo [b]thiophen-5-yl)difluoromethyl)phosphoryl)bis(oxy))bis(ethane-2,1-diyl)) bis(3-hydroxy-3-methylbutane thioate)] gave a pIC50 (pY705-STAT3 in PBMC; [1]) of under 5.52 and a pIC50 (pY641-STAT6 in PBMC; [2]) of 5.52 to 6.00.

In the case of CCCOC(=O)[C@H](C)NP(=O)(Oc1ccccc1)C(F)c1ccc2sc(C(=O)N[C@H]3CCCC[C@H]4CC[C@@H](C(=O)N5C[C@@H](C#N)[C@H](c6ccccc6)C5)N4C3=O)cc2c1 (single isomer, unassigned) [Compound 315], the pIC50 (pY705-STAT3 in PBMC; [3]) was under 5.52 and the pIC50 (pY641-STAT6 in PBMC; STAT6, PBMC, Table 115) was over 7.00.

In the case of CCCOC(=O)[C@H](C)NP(=O)(Oc1ccccc1)C(F)c1ccc2sc(C(=O)N[C@H]3CCCC[C@H]4CC[C@@H](C(=O)N5C[C@@H](c6cccc(OC)c6)[C@H](C#N)C56CC6)N4C3=O)cc2c1 (single isomer, unassigned) [Compound 326], the pIC50 (pY705-STAT3 in PBMC; [3]) was under 5.52 and the pIC50 (pY641-STAT6 in PBMC; STAT6, PBMC, Table 115) was over 7.00.

Compound CCCOC(=O)[C@H](C)NP(=O)(Oc1ccccc1)[C@@H](F)c1ccc2sc(C(=O)N[C@H]3CCCC[C@H]4CC[C@@H](C(=O)N5C[C@@H](C#N)[C@H](c6ccccc6)C5)N4C3=O)cc2c1 (single isomer, unassigned) [Compound 343] has a pIC50 (pY705-STAT3 in PBMC; [3]) of under 5.52 and a pIC50 (pY641-STAT6 in PBMC; STAT6, PBMC, Table 115) of over 7.00.

CCCOC(=O)[C@H](C)NP(=O)(Oc1ccccc1)[C@H](F)c1ccc2sc(C(=O)N[C@H]3CCC[C@H]4CC[C@@H](C(=O)N5C[C@H](c6cccnc6)[C@@H](C#N)C56CC6)N4C3=O)cc2c1 (single isomer, unassigned) [Compound 354] showed a pIC50 (pY705-STAT3 in PBMC; [3]) of under 5.52 and a pIC50 (pY641-STAT6 in PBMC; STAT6, PBMC, Table 115) of over 7.00.

Work on N#C[C@H]1CN(C(=O)[C@@H]2CC[C@@H]3CCCC[C@H](NC(=O)c4ccc5ccc(C(F)(F)P(=O)(OCCSC(=O)CC6COC6)OCCSC(=O)CC6COC6)cc5c4)C(=O)N32)C[C@@H]1c1cc[nH]c(=O)c1 (single isomer, unassigned) [Compound 408] yielded a pIC50 (pY705-STAT3 in PBMC; [3]) of under 5.52 and a pIC50 (pY641-STAT6 in PBMC; [4]) of 6.00 to 7.00.

CCCOC(=O)[C@H](C)N[P@](=O)(Oc1ccccc1)[C@@H](F)c1ccc2sc(C(=O)N[C@H]3CCC[C@H]4CC[C@@H](C(=O)N5CC(c6cnccc6N(C)C)C5)N4C3=O)cc2c1 (single isomer, unassigned) [Compound 941] showed a pIC50 (pY705-STAT3 in PBMC; [3]) of over 7.00 and a pIC50 (pY641-STAT6 in PBMC; STAT6, PBMC, Table 115) of 5.52 to 6.00.

Work on CCCOC(=O)[C@H](C)NP(=O)(Oc1ccccc1)[C@H](F)c1ccc2sc(C(=O)N[C@H]3CCC[C@H]4CC[C@@H](C(=O)N5CC(c6cnccc6N(C)C)C5)N4C3=O)cc2c1 (single isomer, unassigned) [Compound 954] yielded a pIC50 (pY705-STAT3 in PBMC; [3]) of over 7.00 and a pIC50 (pY641-STAT6 in PBMC; STAT6, PBMC, Table 115) of under 5.52.

CC(C)CC(=O)SCCOP(=O)(Oc1cccc(C#N)c1)C(F)(F)c1ccc2sc(C(=O)N[C@H]3CCCC[C@H]4CC[C@@H](C(=O)N5C[C@H](c6ccccc6)[C@@H](C#N)C5)N4C3=O)cc2c1 (single isomer, unassigned) [Compound 1007] showed a pIC50 (pY705-STAT3 in PBMC; STAT3, PBMC, Table 115) of under 5.52 and a pIC50 (pY641-STAT6 in PBMC; STAT6, PBMC, Table 115) of 6.00 to 7.00.

For COCC(=O)SCCOP(=O)(OCCSC(=O)COC)C(F)(F)c1ccc2sc(C(=O)N[C@H]3CCCC[C@H]4CC[C@@H](C(=O)N5C[C@@H](C#N)[C@H](c6cc[nH]c(=O)c6)C5)N4C3=O)cc2c1 (single isomer, unassigned) [Compound 1010], the pIC50 (pY705-STAT3 in PBMC; [3]) was 5.52 to 6.00 and the pIC50 (pY641-STAT6 in PBMC; [4]) was 6.00 to 7.00.

CCCOC(=O)[C@H](C)N[P@](=O)(Oc1ccccc1)[C@H](F)c1ccc2sc(C(=O)N[C@H]3CCC[C@H]4CC[C@@H](C(=O)N5CC(c6cnccc6N6CCOCC6)C5)N4C3=O)cc2c1 (single isomer, unassigned) [Compound 1045] was tested, and the pIC50 (pY705-STAT3 in PBMC; [3]) was over 7.00 and the pIC50 (pY641-STAT6 in PBMC; STAT6, PBMC, Table 115) was under 5.52.

COc1ccncc1C1CN(C(=O)[C@@H]2CC[C@@H]3CCC[C@H](NC(=O)c4cc5cc([C@@H](F)[P@](=O)(N[C@@H](C)C(=O)OCc6ccccc6)Oc6ccccc6)ccc5s4)C(=O)N32)C1 (single isomer, unassigned) [Compound 1055] was tested, and the pIC50 (pY705-STAT3 in PBMC; [3]) was over 7.00 and the pIC50 (pY641-STAT6 in PBMC; STAT6, PBMC, Table 115) was under 5.52.

For COCCC(=O)SCCOP(=O)(OCCSC(=O)CCOC)C(F)(F)c1ccc2sc(C(=O)N[C@H]3CCCC[C@H]4CC[C@@H](C(=O)N5C[C@@H](C#N)[C@H](c6cc[nH]c(=O)c6)C5)N4C3=O)cc2c1 (single isomer, unassigned) [Compound 1083], the pIC50 (pY705-STAT3 in PBMC; [3]) was 5.52 to 6.00 and the pIC50 (pY641-STAT6 in PBMC; [4]) was 6.00 to 7.00.

In the case of CC(C)CC(=O)SCCOP(=O)(OCOC(=O)OC1CCOCC1)C(F)(F)c1ccc2sc(C(=O)N[C@H]3CCCC[C@H]4CC[C@@H](C(=O)N5C[C@H](c6cc[nH]c(=O)c6)[C@@H](C#N)C5)N4C3=O)cc2c1 (single isomer, unassigned) [Compound 1085], the pIC50 (pY705-STAT3 in PBMC; [3]) was 6.00 to 7.00 and the pIC50 (pY641-STAT6 in PBMC; [4]) was over 7.00.

CC(C)OC(=O)OCOP(=O)(OCOC(=O)OC(C)C)C(F)(F)c1ccc2ccc(C(=O)N[C@H]3CCCC[C@H]4CC[C@@H](C(=O)N5C[C@H](c6cc[nH]c(=O)c6)[C@@H](C#N)C5)N4C3=O)cc2c1 (single isomer, unassigned) [Compound 1087] showed a pIC50 (pY705-STAT3 in PBMC; [3]) of 6.00 to 7.00 and a pIC50 (pY641-STAT6 in PBMC; [4]) of over 7.00.

For CC(C)OC(=O)OCOP(=O)(OCOC(=O)OC(C)C)C(F)(F)c1ccc2ccc(C(=O)N[C@H]3CCCC[C@H]4CC[C@@H](C(=O)N5C[C@@H](C#N)[C@H](c6cc[nH]c(=O)c6)C5)N4C3=O)cc2c1 (single isomer, unassigned) [Compound 1088], the pIC50 (pY705-STAT3 in PBMC; [3]) was 5.52 to 6.00 and the pIC50 (pY641-STAT6 in PBMC; [4]) was over 7.00.

For CC(C)CC(=O)SCCOP(=O)(OCCSC(=O)CC(C)C)[C@@H](F)c1ccc2sc(C(=O)N[C@H]3CCCC[C@H]4CC[C@@H](C(=O)N5C[C@@H](C#N)[C@H](c6cc[nH]c(=O)c6)C5)N4C3=O)cc2c1 (single isomer, unassigned) [Compound 1090], the pIC50 (pY705-STAT3 in PBMC; [3]) was 5.52 to 6.00 and the pIC50 (pY641-STAT6 in PBMC; [4]) was 6.00 to 7.00.

CC(C)(CO)C(=O)SCCOP(=O)(Oc1ccccc1)C(F)(F)c1ccc2sc(C(=O)N[C@H]3CCCC[C@H]4CC[C@@H](C(=O)N5C[C@@H](C#N)[C@H](c6cc[nH]c(=O)c6)C5)N4C3=O)cc2c1 (single isomer, unassigned) [Compound 1091] gave a pIC50 (pY705-STAT3 in PBMC; [3]) of under 5.52 and a pIC50 (pY641-STAT6 in PBMC; STAT6, PBMC, Table 115) of under 5.52.

Work on CC(C)CC(=O)SCCOP(=O)(OCOC(=O)OC1COC1)C(F)(F)c1ccc2sc(C(=O)N[C@H]3CCCC[C@H]4CC[C@@H](C(=O)N5C[C@H](c6cc[nH]c(=O)c6)[C@@H](C#N)C5)N4C3=O)cc2c1 (single isomer, unassigned) [Compound 1093] yielded a pIC50 (pY705-STAT3 in PBMC; [3]) of under 5.52 and a pIC50 (pY641-STAT6 in PBMC; [4]) of 6.00 to 7.00.
